# Measurements as given in ChEMBL document CHEMBL5465560, “Selectivity Literature for EUbOPEN Chemogenomic Library” (2024).
# What was measured:
# [1] = target: T1, Serine/threonine-protein kinase Nek2 (Homo sapiens) (UniProt P51955); assay: Selectivity interaction (KinomeScan (DiscoverX)) EUB0000045b NEK2
# T1 sequence (whole entry): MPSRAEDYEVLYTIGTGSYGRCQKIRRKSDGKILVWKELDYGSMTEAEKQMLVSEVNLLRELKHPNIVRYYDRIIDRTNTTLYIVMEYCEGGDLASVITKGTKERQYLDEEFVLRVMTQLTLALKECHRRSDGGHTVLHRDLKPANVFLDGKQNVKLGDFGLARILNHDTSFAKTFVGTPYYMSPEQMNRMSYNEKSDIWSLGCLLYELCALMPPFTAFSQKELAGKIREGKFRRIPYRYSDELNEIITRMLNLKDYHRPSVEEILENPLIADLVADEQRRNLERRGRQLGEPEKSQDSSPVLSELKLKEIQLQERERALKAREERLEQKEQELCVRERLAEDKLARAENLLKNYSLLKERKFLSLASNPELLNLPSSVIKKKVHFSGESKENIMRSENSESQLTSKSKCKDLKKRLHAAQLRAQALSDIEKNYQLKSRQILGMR
# [2] = target: 5'-AMP-activated protein kinase catalytic subunit alpha-2 (Homo sapiens) (UniProt P54646); assay: Selectivity interaction (KinomeScan (DiscoverX)) EUB0000666a PRKAA2; details: at 10 µM
# [3] = target: Bromodomain adjacent to zinc finger domain protein 2A (Homo sapiens, UniProt Q9UIF9); assay: Selectivity interaction (Bromodomain panel (DSF asssay)) EUB0000270b BAZ2A
# [4] = target: T2, Tyrosine-protein kinase JAK3 (Homo sapiens) (UniProt P52333); assay: Selectivity interaction (KinomeScan (DiscoverX)) EUB0001049a JAK3; details: at 1 µM
# T2 sequence (whole entry): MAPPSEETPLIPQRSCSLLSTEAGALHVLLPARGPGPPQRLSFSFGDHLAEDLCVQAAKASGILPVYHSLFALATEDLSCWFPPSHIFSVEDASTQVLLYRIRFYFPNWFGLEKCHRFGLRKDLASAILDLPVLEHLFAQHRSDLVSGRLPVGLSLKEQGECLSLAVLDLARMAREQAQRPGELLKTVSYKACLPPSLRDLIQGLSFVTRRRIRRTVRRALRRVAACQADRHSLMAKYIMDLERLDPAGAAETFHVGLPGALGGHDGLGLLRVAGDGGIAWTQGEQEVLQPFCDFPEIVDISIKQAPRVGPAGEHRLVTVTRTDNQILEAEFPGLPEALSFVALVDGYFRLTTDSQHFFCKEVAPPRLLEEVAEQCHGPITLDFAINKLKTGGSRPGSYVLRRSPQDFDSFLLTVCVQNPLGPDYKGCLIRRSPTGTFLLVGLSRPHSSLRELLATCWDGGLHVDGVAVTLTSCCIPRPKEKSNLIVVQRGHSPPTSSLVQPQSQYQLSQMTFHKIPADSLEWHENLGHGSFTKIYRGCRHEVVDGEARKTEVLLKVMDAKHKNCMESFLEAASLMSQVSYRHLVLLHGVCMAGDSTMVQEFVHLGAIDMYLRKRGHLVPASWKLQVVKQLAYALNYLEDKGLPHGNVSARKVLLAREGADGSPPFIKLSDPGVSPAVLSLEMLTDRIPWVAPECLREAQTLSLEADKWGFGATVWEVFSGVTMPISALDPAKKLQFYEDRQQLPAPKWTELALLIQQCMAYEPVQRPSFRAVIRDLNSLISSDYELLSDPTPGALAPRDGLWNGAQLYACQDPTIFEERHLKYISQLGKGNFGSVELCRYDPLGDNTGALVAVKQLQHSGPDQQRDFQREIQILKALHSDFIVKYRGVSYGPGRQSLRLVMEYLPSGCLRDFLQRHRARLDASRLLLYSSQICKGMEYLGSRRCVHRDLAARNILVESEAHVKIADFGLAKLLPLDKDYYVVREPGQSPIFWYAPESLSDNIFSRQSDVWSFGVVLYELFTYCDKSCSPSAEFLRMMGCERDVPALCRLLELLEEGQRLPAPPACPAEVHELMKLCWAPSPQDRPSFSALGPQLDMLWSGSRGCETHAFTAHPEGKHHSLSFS
# [5] = target: Ephrin type-A receptor 5 (Homo sapiens) (UniProt P54756); assay: Selectivity interaction (ProQinase) EUB0000171b EPHA5
# [6] = target: Ribosomal protein S6 kinase alpha-5 (Homo sapiens) (UniProt O75582); assay: Selectivity interaction (ActivX KiNativ screen (ex vivo kinase selectivity in human PBMCs)) EUB0001619a RPS6KA5; type: cell-based; details: PBMC, at 1 µM
# [7] = target: Serine/threonine-protein kinase PAK 4 (Homo sapiens, UniProt O96013); assay: Selectivity interaction (Kinase panel (literature)) EUB0001199aCl PAK4; details: at 1 µM
# [8] = target: T3, NUAK family SNF1-like kinase 1 (Homo sapiens) (UniProt O60285); assay: Selectivity interaction (KinomeScan (DiscoverX)) EUB0000618a NUAK1; details: at 10 µM
# T3 sequence (whole entry): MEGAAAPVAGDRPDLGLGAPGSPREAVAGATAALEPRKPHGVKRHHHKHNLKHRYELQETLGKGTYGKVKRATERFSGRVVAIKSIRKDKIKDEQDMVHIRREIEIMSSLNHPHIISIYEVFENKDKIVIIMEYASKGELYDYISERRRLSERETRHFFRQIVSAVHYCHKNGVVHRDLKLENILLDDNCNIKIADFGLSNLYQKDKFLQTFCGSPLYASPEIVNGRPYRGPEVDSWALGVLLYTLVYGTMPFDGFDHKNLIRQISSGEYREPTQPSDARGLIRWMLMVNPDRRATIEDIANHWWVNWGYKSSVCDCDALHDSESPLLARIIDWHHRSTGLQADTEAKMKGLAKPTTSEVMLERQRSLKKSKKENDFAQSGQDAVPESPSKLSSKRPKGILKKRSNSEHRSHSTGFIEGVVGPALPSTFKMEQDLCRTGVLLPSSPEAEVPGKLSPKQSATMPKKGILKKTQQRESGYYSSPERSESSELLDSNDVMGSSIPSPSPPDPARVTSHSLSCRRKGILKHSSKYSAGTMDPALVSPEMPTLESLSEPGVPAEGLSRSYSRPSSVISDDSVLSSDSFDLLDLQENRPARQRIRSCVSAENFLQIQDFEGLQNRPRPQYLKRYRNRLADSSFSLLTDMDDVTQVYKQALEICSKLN
# [9] = target: Mitogen-activated protein kinase 9 (Homo sapiens, UniProt P45984); assay: Selectivity interaction (ActivX KiNativ screen (kinase selectivity in THP-1 cell lysates)) EUB0000639a MAPK9; type: subcellular; details: lysate
# [10] = target: Calcium/calmodulin-dependent protein kinase type 1 (Homo sapiens) (UniProt Q14012); assay: Selectivity interaction (ActivX KiNativ screen (kinase selectivity in THP-1 cell lysates)) EUB0000639a CAMK1; type: subcellular; details: lysate, at 0.2 µM
# Sequence of Calcium/calmodulin-dependent protein kinase type 1 (Homo sapiens) (Q14012 whole entry, looked up): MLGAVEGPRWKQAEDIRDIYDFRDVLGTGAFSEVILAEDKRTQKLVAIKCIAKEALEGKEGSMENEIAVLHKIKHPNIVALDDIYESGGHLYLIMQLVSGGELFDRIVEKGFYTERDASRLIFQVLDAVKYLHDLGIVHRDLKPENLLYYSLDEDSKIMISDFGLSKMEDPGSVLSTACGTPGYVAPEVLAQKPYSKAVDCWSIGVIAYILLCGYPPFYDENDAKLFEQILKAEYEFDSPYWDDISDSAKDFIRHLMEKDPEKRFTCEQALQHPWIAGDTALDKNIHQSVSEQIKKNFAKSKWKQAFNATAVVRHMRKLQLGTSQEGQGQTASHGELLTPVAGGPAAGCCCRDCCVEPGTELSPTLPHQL
# Sequence of Mitogen-activated protein kinase 9 (P45984 whole entry, looked up): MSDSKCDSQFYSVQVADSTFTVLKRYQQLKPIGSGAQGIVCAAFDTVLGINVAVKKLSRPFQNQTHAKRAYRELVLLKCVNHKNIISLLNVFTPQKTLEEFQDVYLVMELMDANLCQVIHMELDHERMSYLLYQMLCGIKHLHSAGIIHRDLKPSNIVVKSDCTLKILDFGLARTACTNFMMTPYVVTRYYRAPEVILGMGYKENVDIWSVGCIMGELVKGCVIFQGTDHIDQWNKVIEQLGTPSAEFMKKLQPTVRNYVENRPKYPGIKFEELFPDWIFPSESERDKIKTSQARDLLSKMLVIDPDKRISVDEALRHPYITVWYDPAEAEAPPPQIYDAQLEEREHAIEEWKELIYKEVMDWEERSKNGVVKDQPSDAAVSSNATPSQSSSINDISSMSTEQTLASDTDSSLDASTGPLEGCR
# Sequence of Ephrin type-A receptor 5 (Homo sapiens) (P54756 whole entry): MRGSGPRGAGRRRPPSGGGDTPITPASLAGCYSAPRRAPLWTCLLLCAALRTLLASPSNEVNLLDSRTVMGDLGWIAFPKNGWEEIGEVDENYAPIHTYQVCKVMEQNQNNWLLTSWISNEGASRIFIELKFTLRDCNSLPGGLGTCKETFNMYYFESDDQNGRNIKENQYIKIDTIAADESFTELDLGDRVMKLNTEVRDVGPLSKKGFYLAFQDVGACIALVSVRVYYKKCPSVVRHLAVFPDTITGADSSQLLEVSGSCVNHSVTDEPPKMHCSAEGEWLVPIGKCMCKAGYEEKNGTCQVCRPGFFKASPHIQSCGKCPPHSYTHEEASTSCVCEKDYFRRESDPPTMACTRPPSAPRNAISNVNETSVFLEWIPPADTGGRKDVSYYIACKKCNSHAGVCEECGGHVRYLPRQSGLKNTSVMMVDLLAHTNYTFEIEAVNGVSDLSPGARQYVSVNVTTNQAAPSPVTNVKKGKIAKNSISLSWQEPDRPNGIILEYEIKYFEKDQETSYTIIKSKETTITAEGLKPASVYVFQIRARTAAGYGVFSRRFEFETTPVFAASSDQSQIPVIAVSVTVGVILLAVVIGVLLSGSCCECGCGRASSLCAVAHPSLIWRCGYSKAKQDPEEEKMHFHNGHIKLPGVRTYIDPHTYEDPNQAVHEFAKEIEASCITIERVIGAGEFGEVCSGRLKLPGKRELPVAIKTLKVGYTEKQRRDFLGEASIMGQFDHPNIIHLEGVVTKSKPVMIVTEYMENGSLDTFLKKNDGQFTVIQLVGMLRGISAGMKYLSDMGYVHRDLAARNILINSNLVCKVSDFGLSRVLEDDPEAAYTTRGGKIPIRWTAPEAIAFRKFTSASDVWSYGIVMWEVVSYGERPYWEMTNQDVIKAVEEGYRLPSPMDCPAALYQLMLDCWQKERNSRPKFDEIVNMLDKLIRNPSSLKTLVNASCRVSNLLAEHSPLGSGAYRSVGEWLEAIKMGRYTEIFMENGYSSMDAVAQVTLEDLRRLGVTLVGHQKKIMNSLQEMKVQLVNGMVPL
# Sequence of Bromodomain adjacent to zinc finger domain protein 2A (Q9UIF9 whole entry, the tested form may be a part): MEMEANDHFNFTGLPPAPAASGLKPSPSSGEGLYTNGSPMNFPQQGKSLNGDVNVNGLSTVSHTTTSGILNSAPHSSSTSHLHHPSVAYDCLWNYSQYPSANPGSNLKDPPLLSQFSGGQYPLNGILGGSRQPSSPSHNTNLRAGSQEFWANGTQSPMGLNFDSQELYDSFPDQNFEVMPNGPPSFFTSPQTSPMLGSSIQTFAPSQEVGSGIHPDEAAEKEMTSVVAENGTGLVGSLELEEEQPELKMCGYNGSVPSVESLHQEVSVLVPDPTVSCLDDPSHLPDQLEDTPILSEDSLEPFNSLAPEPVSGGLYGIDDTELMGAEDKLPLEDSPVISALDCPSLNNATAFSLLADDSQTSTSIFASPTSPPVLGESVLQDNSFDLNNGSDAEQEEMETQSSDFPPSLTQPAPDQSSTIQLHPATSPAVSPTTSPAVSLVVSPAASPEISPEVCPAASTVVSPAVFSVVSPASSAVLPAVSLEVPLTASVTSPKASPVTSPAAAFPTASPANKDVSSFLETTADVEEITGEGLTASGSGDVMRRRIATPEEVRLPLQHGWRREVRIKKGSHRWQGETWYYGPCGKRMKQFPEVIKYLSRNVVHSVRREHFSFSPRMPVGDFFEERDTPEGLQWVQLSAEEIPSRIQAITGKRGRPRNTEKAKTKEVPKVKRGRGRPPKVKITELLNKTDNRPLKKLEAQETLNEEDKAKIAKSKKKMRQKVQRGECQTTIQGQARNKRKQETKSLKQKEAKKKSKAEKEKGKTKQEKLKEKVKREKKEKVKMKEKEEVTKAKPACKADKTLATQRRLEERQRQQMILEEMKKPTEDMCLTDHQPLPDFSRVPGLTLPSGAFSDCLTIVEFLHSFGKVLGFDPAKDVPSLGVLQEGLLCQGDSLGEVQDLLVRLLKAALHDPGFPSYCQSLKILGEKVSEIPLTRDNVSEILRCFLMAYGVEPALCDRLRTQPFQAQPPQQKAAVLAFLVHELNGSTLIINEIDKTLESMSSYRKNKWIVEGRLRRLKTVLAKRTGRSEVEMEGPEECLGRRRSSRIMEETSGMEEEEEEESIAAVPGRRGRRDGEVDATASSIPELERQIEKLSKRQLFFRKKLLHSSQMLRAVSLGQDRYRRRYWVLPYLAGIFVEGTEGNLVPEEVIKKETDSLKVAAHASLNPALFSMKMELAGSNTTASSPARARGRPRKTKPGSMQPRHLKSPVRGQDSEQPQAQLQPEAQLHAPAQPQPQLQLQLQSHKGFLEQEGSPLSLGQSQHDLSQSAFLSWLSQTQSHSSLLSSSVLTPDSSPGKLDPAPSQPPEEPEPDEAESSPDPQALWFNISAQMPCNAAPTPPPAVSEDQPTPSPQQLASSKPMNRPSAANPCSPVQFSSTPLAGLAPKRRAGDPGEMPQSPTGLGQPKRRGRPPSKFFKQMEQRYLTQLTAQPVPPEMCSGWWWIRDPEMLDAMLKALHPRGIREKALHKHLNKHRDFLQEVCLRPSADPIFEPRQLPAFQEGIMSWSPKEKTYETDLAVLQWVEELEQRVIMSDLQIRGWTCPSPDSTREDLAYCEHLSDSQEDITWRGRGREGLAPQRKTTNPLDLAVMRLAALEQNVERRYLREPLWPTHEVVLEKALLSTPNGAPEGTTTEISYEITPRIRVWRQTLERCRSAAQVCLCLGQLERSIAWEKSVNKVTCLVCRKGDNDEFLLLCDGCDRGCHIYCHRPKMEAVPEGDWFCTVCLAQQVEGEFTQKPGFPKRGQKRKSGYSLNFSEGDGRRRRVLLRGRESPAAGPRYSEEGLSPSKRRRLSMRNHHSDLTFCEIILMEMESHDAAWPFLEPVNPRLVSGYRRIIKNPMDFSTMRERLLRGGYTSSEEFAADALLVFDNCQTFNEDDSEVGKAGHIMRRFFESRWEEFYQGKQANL
# Sequence of Ribosomal protein S6 kinase alpha-5 (Homo sapiens) (O75582 whole entry, looked up): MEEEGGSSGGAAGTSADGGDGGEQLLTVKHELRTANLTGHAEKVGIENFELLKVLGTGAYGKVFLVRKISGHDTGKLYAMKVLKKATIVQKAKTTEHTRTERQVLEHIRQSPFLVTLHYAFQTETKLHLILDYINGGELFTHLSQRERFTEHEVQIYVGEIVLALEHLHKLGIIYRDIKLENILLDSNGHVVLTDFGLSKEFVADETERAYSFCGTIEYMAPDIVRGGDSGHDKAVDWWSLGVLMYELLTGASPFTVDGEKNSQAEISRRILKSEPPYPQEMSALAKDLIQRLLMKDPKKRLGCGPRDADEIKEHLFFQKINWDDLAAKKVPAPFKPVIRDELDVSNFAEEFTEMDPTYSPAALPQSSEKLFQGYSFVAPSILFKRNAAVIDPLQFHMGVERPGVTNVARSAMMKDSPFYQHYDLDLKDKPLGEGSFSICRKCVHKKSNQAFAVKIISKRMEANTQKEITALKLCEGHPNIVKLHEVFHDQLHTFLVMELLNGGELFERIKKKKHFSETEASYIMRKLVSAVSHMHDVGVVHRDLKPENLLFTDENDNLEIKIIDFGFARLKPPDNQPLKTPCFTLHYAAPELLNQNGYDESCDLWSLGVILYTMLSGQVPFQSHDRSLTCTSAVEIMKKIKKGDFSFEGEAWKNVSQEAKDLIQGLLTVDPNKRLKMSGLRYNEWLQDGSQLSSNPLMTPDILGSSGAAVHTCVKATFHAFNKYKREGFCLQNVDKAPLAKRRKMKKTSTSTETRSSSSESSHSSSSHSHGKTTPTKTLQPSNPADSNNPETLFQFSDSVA
# Sequence of 5'-AMP-activated protein kinase catalytic subunit alpha-2 (Homo sapiens) (P54646 whole entry, looked up, the tested form may be a part): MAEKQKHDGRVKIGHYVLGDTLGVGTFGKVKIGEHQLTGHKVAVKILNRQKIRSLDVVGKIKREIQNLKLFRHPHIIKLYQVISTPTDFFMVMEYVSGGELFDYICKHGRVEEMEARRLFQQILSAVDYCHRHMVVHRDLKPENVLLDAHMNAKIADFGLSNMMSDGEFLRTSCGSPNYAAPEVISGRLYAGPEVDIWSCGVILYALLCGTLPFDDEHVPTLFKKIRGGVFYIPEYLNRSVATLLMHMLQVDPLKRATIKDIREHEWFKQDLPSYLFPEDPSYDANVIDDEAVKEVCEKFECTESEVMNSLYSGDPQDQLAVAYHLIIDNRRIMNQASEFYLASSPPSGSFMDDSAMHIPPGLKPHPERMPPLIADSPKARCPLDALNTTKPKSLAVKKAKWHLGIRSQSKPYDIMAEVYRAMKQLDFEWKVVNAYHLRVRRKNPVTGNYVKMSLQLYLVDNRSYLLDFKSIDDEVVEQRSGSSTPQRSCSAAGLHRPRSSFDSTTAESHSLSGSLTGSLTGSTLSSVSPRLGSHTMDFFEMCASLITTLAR
structure (smiles),measurement,setting,value
C=CC(=O)Nc1cc(-n2c(=O)ccc3cnc4ccc(-c5ccc(NS(C)(=O)=O)cc5)cc4c32)ccc1C,% of control,[1]; at 1 µM,79%
same,% of control,[1]; at 10 µM,85%
O=C(NOC[C@H](O)CO)c1ccc(F)c(F)c1Nc1ccc(I)cc1F,% of control,[2],97%
Cc1cc(CN)cc(C)c1-c1ncn(C)c1-c1cncn1C,dTM,[3],-1.5 K
COc1cc(Nc2nc(C)cc(-c3cnn4nc(OC)ccc34)n2)cc(C(F)(F)F)c1,% of control,[4],93%
C=CC(=O)Nc1cccc(C(=O)Nc2ccc(Nc3cc(-c4[nH]c(SC)nc4C)ccn3)cc2)c1,% of control,[5]; at 1 µM,94%
same,% of control,[5]; at 5 µM,87%
N#Cc1cccc(-c2c[nH]c3ncnc(N4CCOCC4)c23)c1,% of inhibition,[6],20%
CN1Cc2nccc(-c3cn(C)nc3-c3ccc(F)cc3)c2C1=O,% of inhibition,[7],7%
O[C@H]1CC[C@H](Nc2ncc3nc(Nc4c(F)cc(F)cc4F)n([C@H]4CCOC4)c3n2)CC1,% of control,[8],97%
CC[C@@H]1[C@H](F)C(=O)N[C@@H]1COc1nccc2cc(C(N)=O)c(OC)cc12 [ZIMLOVISERTIB],% of inhibition,[9]; at 0.01 µM,13.3%
same,% of inhibition,[9]; at 0.04 µM,-1.4%
same,% of inhibition,[9]; at 0.2 µM,1.6%
same,% of inhibition,[9]; at 1 µM,27.7%
same,% of inhibition,[9]; at 5 µM,57.5%
same,% of inhibition,[10],-2.3%
